From patent US8026359B2, “Fungicidal heterocyclic amines” (E.I. du Pont de Nemours and Company, priority 2007, dated 2011)
Marks after values point to notes of the source that are not given here.

Columns and labels:
Type in all cases: in vivo
Fusarium graminearum = experiment: whole plant or invertebrate
Botrytis cinerea = experiment: Test F: tomato Botrytis, preventive spray on tomato seedlings
In short: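 Preventive run-off spray onto tomato seedlings at 200 ppm (equivalent to 500 g/ha) or 40 ppm. Suspensions: compound predissolved in acetone at 3% of final volume, then taken up in acetone/purified water 50/50 containing 250 ppm Trem® 014 surfactant.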

[1] = tested on: Erysiphe graminis f. sp. tritici; experiment: Test A: wheat powdery mildew, preventive spray on wheat seedlings
In short: (§1)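 Each test compound, pre-dissolved in acetone, was suspended in aqueous acetone containing surfactant and sprayed onto the plants to the point of run-off at 200 or 40 ppm.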

Alternaria solani = experiment: Test H: tomato early blight, preventive spray on seedlings
Excerpt: General protocol for preparing test suspensions for Tests A-R: The test compounds were first dissolved in acetone in an amount equal to 3% of the final volume and then suspended at the desired concentration (in ppm) in acetone and purified water (50/50 mix) containing 250 ppm of the surfactant Trem® 014 (polyhydric alcohol esters). The resulting test suspensions were then used in tests A-R. In Tests A-M, compounds were sprayed as a 200 ppm test suspension (equivalent to a rate of 500 g/ha) or as a 40 ppm test suspension to the point of runoff on the test plants. In Tests N-R, compounds were sprayed as a 100 g/ha test suspension (equivalent to a rate of 100 ppm) on the test plants at an application volume of 1000 L/ha. The test suspension was sprayed to the point of run-off on wheat seedlings.

Septoria nodorum = experiment: Test C: wheat glume blotch, preventive spray on wheat seedlings
In short: as §1

[2] = tested on: Puccinia recondita f. sp. tritici; experiment: Test B: wheat leaf rust, preventive spray on wheat seedlings
In short: as §1

Septoria tritici = experiment: Test D: wheat leaf blotch, preventive spray on wheat seedlings
In short: as §1

[3] = tested on: Colletotrichum orbiculare; experiment: Test I: cucumber Colletotrichum anthracnose, preventive spray on cucumber seedlings; details: 100 = 100% disease control, 0 = no control relative to controls; for pest or weed control at 200 ppm: Colletotrichum orbiculare, 144 h, read-out: Test I disease control rating
In short: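 Preventive foliar spray to run-off on cucumber seedlings, at 200 ppm (stated as equal to 500 g/ha) or 40 ppm. Test suspensions were made in acetone/water 50/50 containing 250 ppm Trem 014, after first dissolving compound in acetone at 3% of final volume.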

[4] = 200 ppm, 100 = 100% disease control, 0 = no control relative to controls
[5] = Fusarium graminearum, in Triticum aestivum, 192 h, read-out: Test E disease control rating
[6] = Botrytis cinerea, 120 h, 200 ppm, 100 = 100% disease control, 0 = no control relative to controls, read-out: Test F disease control rating
[7] = Alternaria solani, 168 h, 200 ppm, 100 = 100% disease control, 0 = no control relative to controls, read-out: Test H disease control rating
[8] = Parastagonospora nodorum, 216 h, 200 ppm, 100 = 100% disease control, 0 = no control relative to controls, read-out: Test C disease control rating
[9] = Puccinia recondita, 192 h, 200 ppm, 100 = 100% disease control, 0 = no control relative to controls, read-out: Test B disease control rating
[10] = Zymoseptoria tritici, 504 h, 200 ppm, 100 = 100% disease control, 0 = no control relative to controls, read-out: Test D disease control rating

Structure (SMILES) | Test E disease control rating (Fusarium graminearum; [4]) [%] | Test F disease control rating (Botrytis cinerea; [4]) [%] | Test A disease control rating [1, 4] [%] | Test C disease control rating (Septoria nodorum; [4]) [%] | Test B disease control rating [2, 4] [%] | Test D disease control rating (Septoria tritici; [4]) [%] | Test H disease control rating (Alternaria solani; [4]) [%] | pest or weed control at 200 ppm (Fusarium graminearum; [5]) [%] | pest or weed control at 200 ppm (Botrytis cinerea; [6]) [%] | pest or weed control at 200 ppm (Alternaria solani; [7]) [%] | pest or weed control at 200 ppm (Septoria nodorum; [8]) [%] | pest or weed control at 200 ppm [2, 9] [%] | pest or weed control at 200 ppm (Septoria tritici; [10]) [%] | pest or weed control at 200 ppm [3] [%] | also measured
COC[C@H](C)Nc1nccc(-c2ncnc(Nc3ccnc(Cl)c3)n2)n1 [Compound 27] | 97 | 94 | 0 | 99 | 100 | 75 |  |  |  |  |  |  |  |  | Test H disease control rating (Alternaria solani; 40 ppm (marked *)): 100* %
COCC(C)(C)Nc1nccc(-c2ncnc(Nc3cc(F)cc(F)c3)n2)n1 [Compound 30] | 91 | 96 | 67 | 100 | 99 | 88 |  |  |  |  |  |  |  |  | Test H disease control rating (Alternaria solani; 40 ppm (marked *)): 87* %
COC[C@H](C)Nc1nccc(-c2ncnc(Nc3ccnc(F)c3)n2)n1 [Compound 31] | 89 | 99 | 0 | 100 | 100 | 88 | 92 |  |  |  |  |  |  |  | 
COC(C)(C)Nc1nccc(-c2ncnc(Nc3cc(F)cc(F)c3)n2)n1 [Compound 32] | 38 | 94 | 0 | 100 | 99 | 39 | 99 |  |  |  |  |  |  |  | 
CC(C)(C)Nc1nccc(-c2ncnc(Nc3cc(F)cc(F)c3)n2)n1 [Compound 33] |  | 0 | 0 | 99 | 87 | 22 | 94 |  |  |  |  |  |  |  | Test E disease control rating (Fusarium graminearum; 40 ppm (marked *)): 83* %
Fc1cc(F)cc(Nc2ncnc(-c3ccnc(NC4CCOCC4)n3)n2)c1 [Compound 34] | 68 | 0 | 0 | 100 | 98 | 59 | 94 |  |  |  |  |  |  |  | 
COC[C@H](C)Nc1nccc(-c2ncnc(Nc3cc(F)cc(C#N)c3)n2)n1 [Compound 36] |  |  |  |  |  |  |  |  |  |  |  |  |  |  | Test E disease control rating (Fusarium graminearum; 40 ppm (marked *)): 91* %; Test F disease control rating (Botrytis cinerea; 40 ppm (marked *)): 99* %; Test A disease control rating ([1]; 40 ppm (marked *)): 0* %; Test H disease control rating (Alternaria solani; 40 ppm (marked *)): 99* %; Test C disease control rating (Septoria nodorum; 40 ppm (marked *)): 100* %; Test B disease control rating ([2]; 40 ppm (marked *)): 99* %; Test D disease control rating (Septoria tritici; 40 ppm (marked *)): 29* %
COC[C@H](C)Nc1nccc(-c2ncnc(Nc3ccc(C#N)nc3)n2)n1 [Compound 37, 5-[[4-[2-[[(1S)-2-methoxy-1-methylethyl]amino]-4-pyrimidinyl]-1,3,5-triazinyl]amino]-2-pyridinecarbonitrile] |  |  |  |  |  |  |  | 41 | 0 | 72 | 98 | 99 | 0 |  | pest or weed control at 200 ppm ([1]; Blumeria graminis, 192 h, 200 ppm, 100 = 100% disease control, 0 = no control relative to controls, read-out: Test A disease control rating): 79%
COC[C@H](C)Nc1nccc(-c2ncnc(Nc3cc(F)cc([N+](=O)[O-])c3)n2)n1 [Compound 39, N-(3-fluoro-5-nitrophenyl)-4-[2-[[(1S)-2-methoxy-1-methylethyl]amino]-4-pyrimidinyl]-1,3,5-triazin-2-amine] |  |  |  |  |  |  |  |  |  |  |  |  |  |  | pest or weed control at 40 ppm (Fusarium graminearum; [5]): 82%; pest or weed control at 40 ppm (Botrytis cinerea; Botrytis cinerea, 120 h, 40 ppm (marked *), read-out: Test F disease control rating): 60%; pest or weed control at 40 ppm ([1]; Blumeria graminis, 192 h, 40 ppm (marked *), read-out: Test A disease control rating): 0%; pest or weed control at 40 ppm (Alternaria solani; Alternaria solani, 168 h, 40 ppm (marked *), read-out: Test H disease control rating): 99%; pest or weed control at 40 ppm (Septoria nodorum; Parastagonospora nodorum, 216 h, 40 ppm (marked *), read-out: Test C disease control rating): 99%; pest or weed control at 40 ppm ([2]; Puccinia recondita, 192 h, 40 ppm (marked *), read-out: Test B disease control rating): 98%; pest or weed control at 40 ppm (Septoria tritici; Zymoseptoria tritici, 504 h, 40 ppm (marked *), read-out: Test D disease control rating): 24%
COC(C)CNc1nccc(-c2ccnc(Nc3cccc(F)c3)c2)n1 (centres unmarked) [Compound 96, 4-[2-[(3-fluorophenyl)amino]-4-pyridinyl]-N-(2-methoxypropyl)-2-pyrimidinamine] |  |  |  |  |  |  |  | 0 | 86 | 0 | 99 | 85 | 28 | 0 | 
Cc1cc(Cl)cc(Cl)c1Nc1cc(-c2ccnc(NC3CCOCC3)n2)ccn1 [Compound 100] | 96 | 0 | 0 | 98 | 98 | 77 | 99 |  |  |  |  |  |  |  | Test I disease control rating ([3]; 200 ppm): 0%
Clc1ccccc1Nc1cc(-c2ccnc(NC3CCOCC3)n2)ccn1 [Compound 101, 4-[2-[(2-chlorophenyl)amino]-4-pyridinyl]-N-(tetrahydro-2H-pyran-4-yl)-2-pyrimidinamine] |  |  |  |  |  |  |  | 97 | 99 | 92 | 100 | 99 | 53 | 97 | 
Cc1ccc(Nc2cc(-c3ccnc(NC4CCOCC4)n3)ccn2)c(Cl)c1 [Compound 102, 4-[2-[(2-chloro-4-methylphenyl)amino]-4-pyridinyl]-N-(tetrahydro-2H-pyran-4-yl)-2-pyrimidinamine] |  |  |  |  |  |  |  | 27 | 83 | 41 | 100 | 93 | 3 | 0 | 
Cc1cc(Cl)ccc1Nc1cc(-c2ccnc(NC3CCOCC3)n2)ccn1 [Compound 103, 4-[2-[(4-chloro-2-methylphenyl)amino]-4-pyridinyl]-N-(tetrahydro-2H-pyran-4-yl)-2-pyrimidinamine] |  |  |  |  |  |  |  | 0 | 0 | 99 | 100 | 97 | 1 | 0 | 
Cc1cccc(Cl)c1Nc1nccc(-c2ncnc(NC3CCOCC3)n2)n1 [Compound 104, 4-[2-[(2-chloro-6-methylphenyl)amino]-4-pyrimidinyl]-N-(tetrahydro-2H-pyran-4yl)-1,3,5-triazin-2-amine] |  |  |  |  |  |  |  | 0 | 0 | 0 | 94 | 99 | 10 | 0 | 
COCC(C)Nc1cc(-c2ccnc(Nc3c(C)cccc3Cl)n2)ncn1 (centres unmarked) [Compound 110, N^2-(2-chloro-6-methylphenyl)-N^6′-(2-methoxy-1-methylethyl) [4,4′-bipyrimidine]-2,6′-diamine] |  |  |  |  |  |  |  | 0 | 65 | 89 | 60 | 89 | 9 | 97 | 
